Experimental data as given in patent publication US8163793B2, “Proline derivatives” (Hoffman-La Roche Inc., priority 2009, dated 2012).

Experiments:
Cathepsin S = Cathepsin S (UniProt P25774); test: Cathepsin enzyme inhibition assay (fluorogenic peptide substrate Z-Val-Val-Arg-AMC), Cathepsin S; format: biochemical, human and mouse; details: enzyme 1 nM, substrate 20 μM, pH 6.5; read-out: CatS IC50
How it was run: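 Compounds were combined with 1 nM human or mouse enzyme, and substrate then started the reaction. The buffer was potassium phosphate (100 mM, pH 6.5) containing EDTA-Na 5 mM, Triton X-100 0.001% and […] 5 mM.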

Cat L = Cat L (UniProt P07711); test: Cathepsin enzyme inhibition assay (fluorogenic peptide substrate Z-Val-Val-Arg-AMC), Cathepsin L; format: biochemical, human and mouse; details: enzyme 1 nM, substrate 20 μM, pH 6.5; read-out: CatL IC50
How it was run: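 Fluorogenic cleavage of Z-Val-Val-Arg-AMC (20 μM) by 1 nM Cat L was monitored at ex 360/em 465 nm for 20 min, the linear phase. The buffer was 100 mM potassium phosphate pH 6.5 with 5 mM EDTA and DTT. IC50 values were derived by standard methods, in μM.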

Structure (SMILES)	IC50 (Cathepsin S) [nM]	IC50 (Cat L) [nM]
N#CC1(NC(=O)[C@@H]2C[C@@H](S(=O)(=O)c3ccccc3Cl)CN2C(=O)Cn2ccc(C(F)(F)F)n2)CC1 [Example 422, (2S,4R)-4-(2-Chloro-benzenesulfonyl)-1-[2-(3-trifluoromethyl-pyrazol-1-yl)-acetyl]-pyrrolidine-2-carboxylic acid (1-cyano-cyclopropyl)-amide]	1.85	4360
N#CC1(NC(=O)[C@@H]2C[C@@H](S(=O)(=O)CC3CC3)CN2C(=O)C2(C(F)(F)F)CC2)CC1 [Example 423, (2S,4R)-4-Cyclopropylmethanesulfonyl-1-(1-trifluoromethyl-cyclopropanecarbonyl)-pyrrolidine-2-carboxylic acid (1-cyano-cyclopropyl)-amide]	1470	≥ 25000
N#CC1(NC(=O)[C@@H]2C[C@@H](S(=O)(=O)CC3CC3)CN2C(=O)C2(c3ccc(Cl)cc3)CC2)CC1 [Example 424, (2S,4R)-1-[1-(4-Chloro-phenyl)-cyclopropanecarbonyl]-4-cyclopropylmethanesulfonyl-pyrrolidine-2-carboxylic acid (1-cyano-cyclopropyl)-amide]	410	≥ 25000
CC(C)(C)OC(=O)N1CCC(C(=O)N2C[C@H](S(=O)(=O)c3ccccc3Cl)C[C@H]2C(=O)NC2(C#N)CC2)(c2ccc(Cl)cc2)CC1 [Example 433, tert-butyl 4-(4-chlorophenyl)-4-((2S,4R)-4-(2-chlorophenylsulfonyl)-2-(1-cyanocyclopropylcarbamoyl)pyrrolidine-1-carbonyl)piperidine-1-carboxylate]	1.95	945
N#CC1(NC(=O)[C@@H]2C[C@@H](S(=O)(=O)c3ccccc3Cl)CN2C(=O)C(F)(F)c2ccc(Cl)c(Cl)c2)CC1 [Example 437, (2S,4R)-4-(2-Chloro-benzenesulfonyl)-1-[2-(3,4-dichloro-phenyl)-2,2-difluoro-acetyl]-pyrrolidine-2-carboxylic acid (1-cyano-cyclopropyl)-amide]	1.45	335
CS(=O)(=O)[C@@H]1C[C@@H](C(=O)NC2(C#N)CC2)N(C(=O)C2(C(F)(F)F)CC2)C1 [Example 440, (2S,4R)-4-Methanesulfonyl-1-(1-trifluoromethyl-cyclopropanecarbonyl)-pyrrolidine-2-carboxylic acid (1-cyano-cyclopropyl)-amide]	7470	≥ 25000
CC(C)(C)c1ccc([C@@H]2N[C@](CCS(=O)(=O)c3ccccc3)(C(=O)NC3(C#N)CC3)C[C@H]2S(=O)(=O)c2ccccc2)cc1 [Example 441, (2S,4R,5S)-5-(4-tert-butylphenyl)-N-(1-cyanocyclopropyl)-4-(phenylsulfonyl)-2-(2-(phenylsulfonyl)ethyl)pyrrolidine-2-carboxamide]	85.5	≥ 25000
N#CC1(NC(=O)[C@@H]2C[C@@H](S(=O)(=O)c3ccccc3Cl)CN2C(=O)Cc2ccc(Cl)c(F)c2)CC1 [Example 444, (2S,4R)-4-(2-Chloro-benzenesulfonyl)-1-[2-(4-chloro-3-fluoro-phenyl)-acetyl]-pyrrolidine-2-carboxylic acid (1-cyano-cyclopropyl)-amide]	0.895	260
Cc1cc(N2C[C@H](S(=O)(=O)CC3CC3)C[C@H]2C(=O)NC2(C#N)CC2)n(Cc2ccccc2)n1 [Example 445, (2S,4R)-1-(2-Benzyl-5-methyl-2H-pyrazol-3-yl)-4-cyclopropylmethanesulfonyl-pyrrolidine-2-carboxylic acid (1-cyano-cyclopropyl)-amide]	725	≥ 25000
CC(C)(C)c1ccc(C2NC(C(=O)NC3(C#N)CC3)CC2S(=O)(=O)c2ccccc2)cc1 (centres unmarked) [Example 447, 4-Benzenesulfonyl-5-(4-tert-butyl-phenyl)-pyrrolidine-2-carboxylic acid (1-cyano-cyclopropyl)-amide]	6130	≥ 25000
Cc1cc(N2C[C@H](S(C)(=O)=O)C[C@H]2C(=O)NC2(C#N)CC2)n(CCc2ccccc2)n1 [Example 448, (2S,4R)-4-Methanesulfonyl-1-(5-methyl-2-phenethyl-2H-pyrazol-3-yl)-pyrrolidine-2-carboxylic acid (1-cyano-cyclopropyl)-amide]	8370	≥ 25000
Cc1cc(N2C[C@H](S(C)(=O)=O)C[C@H]2C(=O)NC2(C#N)CC2)n(Cc2ccccc2)n1 [Example 449, (2S,4R)-1-(2-Benzyl-5-methyl-2H-pyrazol-3-yl)-4-methanesulfonyl-pyrrolidine-2-carboxylic Acid (1-cyano-cyclopropyl)-amide]	10500	≥ 25000
C=CCOc1ccccc1S(=O)(=O)[C@@H]1C[C@@H](C(=O)NC2(C#N)CC2)N(C(=O)OC(C)(C)C)C1 [Example 450, (2S,4R)-4-(2-Allyloxy-benzenesulfonyl)-2-(1-cyano-cyclopropylcarbamoyl)-pyrrolidine-1-carboxylic acid tert-butyl ester]	675	≥ 25000

Other lines, results leading:

IC50 (Cathepsin S) [nM]	IC50 (Cat L) [nM]	Structure (SMILES)
0.26	335	N#CC1(NC(=O)[C@@H]2C[C@@H](S(=O)(=O)c3ccccc3Cl)CN2C(=O)C2(c3ccc(F)cc3)CC2)CC1 [Example 425, (2S,4R)-4-(2-chlorophenylsulfonyl)-N-(1-cyanocyclopropyl)-1-(1-(4-fluorophenyl)-cyclopropanecarbonyl)pyrrolidine-2-carboxamide]
0.47	45	N#CC1(NC(=O)[C@@H]2C[C@@H](S(=O)(=O)c3ccccc3Cl)CN2C(=O)C2(c3ccc(Br)cc3)CC2)CC1 [Example 426, (2S,4R)-1-(1-(4-bromophenyl)cyclopropanecarbonyl)-4-(2-chlorophenylsulfonyl)-N-(1-cyanocyclopropyl)pyrrolidine-2-carboxamide]
0.51	95	N#CC1(NC(=O)[C@@H]2C[C@@H](S(=O)(=O)c3ccccc3Cl)CN2C(=O)C2(c3ccc(C(F)(F)F)cc3)CC2)CC1 [Example 427, (2S,4R)-4-(2-chlorophenylsulfonyl)-N-(1-cyanocyclopropyl)-1-(1-(4-(trifluoromethyl)phenyl)cyclopropanecarbonyl)pyrrolidine-2-carboxamide]
0.415	335	N#CC1(NC(=O)[C@@H]2C[C@@H](S(=O)(=O)c3ccccc3Cl)CN2C(=O)C2(c3cccc(Cl)c3)CC2)CC1 [Example 428, (2S,4R)-1-(1-(3-chlorophenyl)cyclopropanecarbonyl)-4-(2-chlorophenylsulfonyl)-N-(1-cyanocyclopropyl)pyrrolidine-2-carboxamide]
0.365	460	N#CC1(NC(=O)[C@@H]2C[C@@H](S(=O)(=O)c3ccccc3Cl)CN2C(=O)C2(c3cccc(C(F)(F)F)c3)CC2)CC1 [Example 429, (2S,4R)-4-(2-chlorophenylsulfonyl)-N-(1-cyanocyclopropyl)-1-(1-(3-(trifluoromethyl)phenyl)cyclopropanecarbonyl)pyrrolidine-2-carboxamide]
0.82	2590	CC(C(=O)N1C[C@H](S(=O)(=O)c2ccccc2Cl)C[C@H]1C(=O)NC1(C#N)CC1)c1ccc(Cl)cc1 (stereo partly drawn) [Example 430, (2S,4R)-1-(2-(4-chlorophenyl)propanoyl)-4-(2-chlorophenylsulfonyl)-N-(1-cyanocyclopropyl)pyrrolidine-2-carboxamide]
0.875	130	CC(C(=O)N1C[C@H](S(=O)(=O)c2ccccc2Cl)C[C@H]1C(=O)NC1(C#N)CC1)c1ccc(Cl)cc1 (some centres unmarked) [Example 431]
0.595	115	CC(C)C(C(=O)N1C[C@H](S(=O)(=O)c2ccccc2Cl)C[C@H]1C(=O)NC1(C#N)CC1)c1ccc(Cl)cc1 (stereo partly drawn) [Example 432, (2S,4R)-1-(2-(4-chlorophenyl)-3-methylbutanoyl)-4-(2-chlorophenylsulfonyl)-N-(1-cyanocyclopropyl)pyrrolidine-2-carboxamide]
0.895	29.5	N#CC1(NC(=O)[C@@H]2C[C@@H](S(=O)(=O)c3ccccc3Cl)CN2C(=O)C2(c3ccc(Cl)cc3F)CC2)CC1 [Example 439, (2S,4R)-1-(1-(4-chloro-2-fluorophenyl)cyclopropanecarbonyl)-4-(2-chlorophenylsulfonyl)-N-(1-cyanocyclopropyl)pyrrolidine-2-carboxamide]
0.615	240	N#CC1(NC(=O)[C@@H]2C[C@@H](S(=O)(=O)c3ccccc3Cl)CN2C(=O)C(F)(F)c2ccc(Cl)cc2)CC1 [Example 442, (2S,4R)-4-(2-Chloro-benzenesulfonyl)-1-[2-(4-chloro-phenyl)-2,2-difluoro-acetyl]-pyrrolidine-2-carboxylic acid (1-cyano-cyclopropyl)-amide]
0.605	22	N#CC1(NC(=O)[C@@H]2C[C@@H](S(=O)(=O)c3ccccc3Cl)CN2C(=O)C2(c3ccc(Cl)cc3Cl)CC2)CC1 [Example 443, (2S,4R)-4-(2-Chloro-benzenesulfonyl)-1-[1-(2,4-dichloro-phenyl)-cyclopropanecarbonyl]-pyrrolidine-2-carboxylic acid (1-cyano-cyclopropyl)-amide]
0.275	21.5	N#CC1(NC(=O)[C@@H]2C[C@@H](S(=O)(=O)c3ccccc3Cl)CN2C(=O)C2(c3ccc(Cl)c(F)c3)CC2)CC1 [Example 446, (2S,4R)-4-(2-Chloro-benzenesulfonyl)-1-[1-(4-chloro-3-fluoro-phenyl)-cyclopropanecarbonyl]-pyrrolidine-2-carboxylic acid (1-cyano-cyclopropyl)-amide]
